Source: patent publication US20260285850A1, “SUBSTITUTED OXAZOLIDINONES AND IMIDAZOLINONES AS HERBICIDES” (FMC CORPORATION, priority 2023, published 2026)

What was measured:
Assay type in all cases: in vivo
[1] = system: oat, wild (wild oat, Avena fatua); assay: Test A postemergence application, visual injury rating 0-100
In short: (§1)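 Compounds formulated in a non-phytotoxic solvent with surfactant are sprayed onto soil of freshly planted loam-sand pots ahead of emergence, or onto emerged plants 2-10 cm tall. After a 10-day greenhouse period, each species is scored visually for injury against untreated controls.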

[2] = system: blackgrass (Alopecurus myosuroides); assay: as above
In short: as §1

[3] = system: palmer (palmer amaranth, palmer pigweed, Amaranthus palmeri); assay: as above
In short: as §1

kochia (Bassia scoparia) [4] = assay: as above
In short: as §1

[5] = system: wheat (Triticum aestivum); assay: as above
In short: as §1

[6] = system: ryegrass, Italian (italian ryegrass, Lolium multiflorum); assay: as above
In short: as §1

[7] = system: barnyardgrass (Echinochloa crus-galli); assay: as above
In short: as §1

[8] = system: ragweed (common ragweed, Ambrosia artemisiifolia); assay: as above
In short: as §1

[9] = system: green foxtail (Setaria viridis); assay: as above
In short: as §1

soybean (Glycine max) [10] = assay: as above
In short: as §1

corn (Zea mays) [11] = assay: as above
In short: as §1

[12] = system: galium (catchweed bedstraw, Galium aparine); assay: as above
In short: as §1

[13] = system: horseweed (Erigeron canadensis); assay: as above
In short: as §1

[14] = system: oat, wild (wild oat, Avena fatua); assay: Test A preemergence soil spray, visual injury rating 0-100; conditions: 10 days
In short: as §1

[15] = system: blackgrass (Alopecurus myosuroides); assay: as above; conditions: 10 days
In short: as §1

[16] = system: palmer (palmer amaranth, palmer pigweed, Amaranthus palmeri); assay: as above; conditions: 10 days
In short: as §1

kochia (Bassia scoparia) [17] = assay: as above; conditions: 10 days
In short: as §1

[18] = system: wheat (Triticum aestivum); assay: as above; conditions: 10 days
In short: as §1

[19] = system: ryegrass, Italian (italian ryegrass, Lolium multiflorum); assay: as above; conditions: 10 days
In short: as §1

[20] = system: barnyardgrass (Echinochloa crus-galli); assay: as above; conditions: 10 days
In short: as §1

[21] = system: ragweed (common ragweed, Ambrosia artemisiifolia); assay: as above; conditions: 10 days
In short: as §1

[22] = system: green foxtail (Setaria viridis); assay: as above; conditions: 10 days
In short: as §1

soybean (Glycine max) [23] = assay: as above; conditions: 10 days
In short: as §1

corn (Zea mays) [24] = assay: as above; conditions: 10 days
In short: as §1

[25] = system: barnyardgrass (Echinochloa crusgalli); assay: Test B flooded paddy test, visual plant response rating 0-100; conditions: 250 g ai/ha, Flood, applied to paddy water, evaluated after 13 days
In short: (§2)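 Paddy-water application: test compounds went directly into water flooded 3 cm above the soil surface, with plants at 2 leaves. After a 13-day greenhouse period, responses were judged by eye relative to controls; a dash marks an untested entry.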

rice (Oryza sativa) = assay: as above; conditions: 250 g ai/ha, Flood, applied to paddy water, evaluated after 13 days
In short: as §2

[26] = system: sedge, umbrella (small-flower umbrella sedge, Cyperus difformis); assay: as above; conditions: 250 g ai/ha, Flood, applied to paddy water, evaluated after 13 days
In short: as §2

[27] = system: ducksalad (Heteranthera limosa); assay: as above; conditions: 250 g ai/ha, Flood, applied to paddy water, evaluated after 13 days
In short: as §2

[28] = 62 g ai/ha, postemergence, 10 days, 0 = no effect, 100 = complete control
[29] = Postemergence, 16 g ai/ha, greenhouse 10 days, 0 no effect, 100 complete control
[30] = 62 g ai/ha, 0 = no effect, 100 = complete control

CC1(C(=O)NC2CC=C(C(=O)O)C2)CN(c2cc(Cl)cc(Cl)c2)C(=O)O1 (stereo not shown) [Compound 158]
Oat, Wild plant response rating (0-100) [1, 28]: 90
Oat, Wild plant response rating (0 to 100 scale) [1, 29]: 20
Blackgrass plant response rating (0-100) [2, 28]: 100
Blackgrass plant response rating (0 to 100 scale) [2, 29]: 80
Pigweed, Palmer plant response rating (0-100) [3, 28]: 90
Pigweed, Palmer plant response rating (0 to 100 scale) [3, 29]: 90
Kochia plant response rating (0-100) (kochia (Bassia scoparia) [4]; [28]): 90
Kochia plant response rating (0 to 100 scale) (kochia (Bassia scoparia) [4]; [29]): 80
Wheat plant response rating (0-100) [5, 28]: 80
Wheat plant response rating (0 to 100 scale) [5, 29]: 70
Ryegrass, Italian plant response rating (0-100) [6, 28]: 80
Ryegrass, Italian plant response rating (0 to 100 scale) [6, 29]: 80
Barnyardgrass plant response rating (0-100) [7, 28]: 100
Barnyardgrass plant response rating (0 to 100 scale) [7, 29]: 90
Ragweed plant response rating (0-100) [8, 28]: 60
Ragweed plant response rating (0 to 100 scale) [8, 29]: 50
Foxtail, Green plant response rating (0-100) [9, 28]: 90
Foxtail, Green plant response rating (0 to 100 scale) [9, 29]: 90
Soybean plant response rating (0-100) (soybean (Glycine max) [10]; [28]): 90
Soybean plant response rating (0 to 100 scale) (soybean (Glycine max) [10]; [29]): 60
Corn plant response rating (0-100) (corn (Zea mays) [11]; [28]): 100
Corn plant response rating (0 to 100 scale) (corn (Zea mays) [11]; [29]): 100
Galium plant response rating (0-100) [12, 28]: 90
Galium plant response rating (0 to 100 scale) [12, 29]: 90
Horseweed plant response rating (0-100) [13, 28]: 70
Horseweed plant response rating (0 to 100 scale) [13, 29]: 30
Oat, Wild plant response rating ([14]; 16 g ai/ha, 0 to 100 scale): 10
Oat, Wild plant response rating (0-100) [14, 30]: 30
Blackgrass plant response rating ([15]; 16 g ai/ha, 0 to 100 scale): 0
Blackgrass plant response rating (0-100) [15, 30]: 50
Pigweed, Palmer plant response rating ([16]; 16 g ai/ha, 0 to 100 scale): 50
Pigweed, Palmer plant response rating (0-100) [16, 30]: 90
Kochia plant response rating (kochia (Bassia scoparia) [17]; 16 g ai/ha, 0 to 100 scale): 30
Kochia plant response rating (0-100) (kochia (Bassia scoparia) [17]; [30]): 80
Wheat plant response rating ([18]; 16 g ai/ha, 0 to 100 scale): 40
Wheat plant response rating (0-100) [18, 30]: 80
Ryegrass, Italian plant response rating ([19]; 16 g ai/ha, 0 to 100 scale): 0
Ryegrass, Italian plant response rating (0-100) [19, 30]: 70
Barnyardgrass plant response rating ([20]; 16 g ai/ha, 0 to 100 scale): 40
Barnyardgrass plant response rating (0-100) [20, 30]: 90
Ragweed plant response rating ([21]; 16 g ai/ha, 0 to 100 scale): 0
Ragweed plant response rating (0-100) [21, 30]: 70
Foxtail, Green plant response rating ([22]; 16 g ai/ha, 0 to 100 scale): 0
Foxtail, Green plant response rating (0-100) [22, 30]: 90
Soybean plant response rating (soybean (Glycine max) [23]; 16 g ai/ha, 0 to 100 scale): 0
Soybean plant response rating (0-100) (soybean (Glycine max) [23]; [30]): 20
Corn plant response rating (corn (Zea mays) [24]; 16 g ai/ha, 0 to 100 scale): 0
Corn plant response rating (0-100) (corn (Zea mays) [24]; [30]): 60
Plant response rating, Barnyardgrass (0 to 100 scale, 0 is no effect and 100 is complete control) [25]: 90
Plant response rating, Rice (0 to 100 scale, 0 is no effect and 100 is complete control) (rice (Oryza sativa)): 50
Plant response rating, Sedge, Umbrella (0 to 100 scale, 0 is no effect and 100 is complete control) [26]: 98
Plant response rating, Ducksalad (0 to 100 scale, 0 is no effect and 100 is complete control) [27]: 70
